This note sets out measurements from US20250339567A1, “COMPOUNDS WITH IMPROVED PHARMACOKINETICS FOR IMAGING AND THERAPY OF CANCER” (priority 2019, published 2025).

One data set deals with T1, GRPR (Homo sapiens, UniProt P30550).
T1 construct: endogenous in cells; host or cells: PC-3 cells
The data set is described as follows: Determination of GRPR affinity (IC50), competition with [D-3-[125I]I-Tyr6]MJ9 on PC-3 cells. The data set is classed as binding. The protocol:
The reference ligand for IC50 studies ([D-3-[^125I]I-Tyr^6]MJ9) is prepared according to a previously published procedure. Briefly, 0.2 mg of [D-Tyr^6]MJ9 are dissolved in 20 μL Tracepur water and 280 μL TRIS buffer (25 mm TRIS HCl, 0.4 M NaCl, pH=7.9). After addition of the solution to a vial containing 150 μg Iodo-Gen® (1,3,4,6-Tetrachloro-3α,6α-diphenylglycouril, surface-bound), 5.0 μL (16 MBq) [^125I]Nal(74 TBq/mmol, 3.1 GBq/mL, 40 mM NaOH, Hartmann Analytic, Braunschweig, Germany) are added.
The GRPR-positive PC-3 cells are cultured in Dublecco modified Eagle medium/Nutrition Mixture F-12 with Glutamax-I (1:1) (Invitrigon), supplemented with 10% fetal calf serum and maintained at 37° C. in a humidified 5% CO2 atmosphere.
After removal of the culture medium, the cells are washed once with 500 μL of HBSS (Hank's balanced salt solution, Biochrom, Berlin, Germany, with addition of 1% bovine serum albumin (BSA)) and left in 200 μL HBSS (1% BSA) for 9 min at room temperature for equilibration. Next, 25 μL per well of solutions, containing either HBSS (1% BSA) as control or the respective ligand in increasing concentration (10^−10 M-10^−4 M in HBSS), are added with subsequent addition of 25 μL of [D-3-[^125I]I-Tyr^6]MJ9 (2.0 nM) in HBSS (1% BSA).
All experiments are performed in triplicate for each concentration. After 2 h incubation at room temperature, the experiment is terminated by removal of the medium and consecutive rinsing with 300 μL of HBSS. The media of both steps are combined in one fraction and represent the amount of free radiolabeled reference. Afterwards, the cells are lysed with 300 μL of 1 M NaOH for at least 15 min and united with the 300 μL NaOH of the following washing step. Quantification of bound and free radiolabeled reference is accomplished in a γ-counter.
IC50 determination for each ligand was repeated twice.

The test system of a further data set is PC-3 cells. Description: Internalization into PC-3 cells. The data set is classed as cell-based. Particulars: c = 1 nM, 1 h, 37° C., corrected for non-specific binding (10^-3 M [natLu]RM2). The protocol:
For internalization studies, PC-3 cells are harvested 24±2 h before the experiment and seeded in 24-well plates (1.5×10^5 cells/well, 1 mL). Subsequent to the removal of the culture medium, the cells are washed once with 500 μL DMEM/F-12 (5% BSA) and left to equilibrate at 37° C. for at least 15 min in 200 μL DMEM/F-12 (5% BSA). […] Next, 25 μL of the ^125I/^177Lu-labeled GRPR ligand (10 nm) is added and the cells are incubated at 37° C. for 60 min.
The experiment is terminated by placing the 24-well plate on ice for 1 min and consecutive removal of the medium. Each well is rinsed with 300 μL ice-cold PBS and the fractions from these first two steps are combined, representing the amount of free radiolabeled reference. Removal of surface bound activity is accomplished by incubation of the cells with 300 μL of ice-cold Acid Wash solution (0.02 M NaOAc, pH=5.0) for 10 min at room temperature and rinsed again with 300 μL of ice-cold PBS. The internalized activity is determined by incubation of the cells in […] NaOH (1 M) and the combination with the fraction of a subsequent washing step with 300 μL NaOH (1 M).
Each experiment (control and blockade) is performed sixfold. Free, surface bound and internalized activity is quantified in a γ-counter. Data is corrected for non-specific internalization.

Data set [1] relates to PC-3 tumor-bearing CB17-SCID mice. Description: Biodistribution in PC-3 tumor-bearing CB17-SCID mice. Type of data set: in vivo. Particulars: 177Lu-labeled, 24 h p.i. The protocol: (§1) All animal experiments were conducted in accordance with general animal welfare regulations in Germany (German animal protection act, as amended on 18 May 2018, Art. 141 G v. 29.3.2017 | 626, approval no. ROB-55.2-2532.Vet_02-18-109) and the institutional guidelines for the care and use of animals. To establish tumor xenografts, PC-3 cells (5×10^6 cells per 200 μL) were suspended in a 1:1 mixture (v/v) of Dulbecco's modified eagle's medium/Ham's F-12 (DMEM/F-12) with Glutamax-I (1:1) and Cultrex® Basement Membrane Matrix Type 3 (Trevigen Inc., Gaithersburg, MD, USA) and inoculated subcutaneously onto the right shoulder of 6-10 weeks old female CB17-SCID mice (Charles River Laboratories International Inc., Sulzfeld, Germany). Mice were used for experiments when tumor volume was 125-500 mm^3 (2-3 weeks after inoculation).
Approximately 1-5 MBq ([…]) of the radiolabeled GRPR antagonists were injected into the tail vein of PC-3 tumor-bearing mice and sacrificed at 1, 4 or 24 h p.i. (n=4). Selected organs were removed, weighted and measured in a γ-counter (Perkin Elmer, Waltham, MA, USA).

Data set [2] is described as follows: Plasma studies: metabolic stability in vitro in human plasma (radio RP-HPLC). Particulars: for remaining intact tracer in chromatogram: human, plasma, 2 h. The data set is classed as in vitro ADME. A digest of the protocol:
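Radiotracer incubated in human or murine plasma at 37° C. immediately after labeling, for 72±2 h or 6±0.5 h. Proteins precipitated with ice-cold EtOH and MeCN and centrifuged. Supernatant analysed by radio RP-HPLC.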

Data set [3] in a line: n-Octanol-PBS distribution coefficient, log D7.4. The data set is classed as physicochemical. Particulars: 177Lu-labeled ligand; n-octanol/PBS pH 7.4. The protocol: Approximately 1 MBq of the labeled tracer was dissolved in 1 mL of a 1:1 mixture (v/v) of phosphate buffered saline (PBS, pH=7.4) and n-octanol in an Eppendorf tube. After vigorous mixing of the suspension for 3 min at room temperature, the vial was centrifuged at 9000 rpm for 5 min (Biofuge 15, Heraus Sepatech, Osterode, Germany) and 200 μL aliquots of both layers were measured in a γ-counter. The experiment was repeated at least four times.

Data set [4] concerns PC-3 tumor-bearing CB17-SCID mice. Particulars: mouse, in vivo. The protocol: as §1
Imaging studies were performed at a MILabs VECTor^4 small-animal SPECT/PET/OI/CT device (MILabs, Utrecht, the Netherlands). Data were reconstructed using the MILabs Rec software (version 10.02) and a pixel-based Similarity-Regulated Ordered Subsets Expectation Maximization (SROSEM) algorithm, followed by data analysis using the PMOD4.0 software (PMOD TECHNOLOGIES LLC, Zurich, Switzerland). […] Static images were recorded within 1 and 28 h p.i. with an acquisition time of 45-60 min using the HE-GP-RM collimator and a step-wise multi-planar bed movement.

Setting [5] is: IC50 [nM] ± SD (n = 3), ^177Lu-labeled, Table 1C, GRPR affinity.
The mark [6] stands for this setting: IC50 ± SD (n = 3), Table 3, [D-3-[125I]I-Tyr6]MJ9 (c = 0.2 nM), 2 h, r.t., HBSS + 1% BSA.

Like-named read-outs stand apart in the source and are kept apart here. Starred links: 1 amine or outer side, 2 acyl side, 3 side chain; linkers in the order of their positions; H or OH if unused. Non-standard residues stand in square brackets, D forms with d. Residues, ends and D or L forms follow the SMILES beside them. *: point of attachment. DOTA = O=C(O)CN1CCN(CC(=O)O)CCN(CC(=O)*)CCN(CC(=O)O)CC1; Sta = CC(C)C[C@H](N)[C@@H](O)CC(=O)O; Bta = N[C@@H](Cc1csc2ccccc12)C(=O)O; X1 = O=C(CN1CCC(N[*:1])CC1)[*:2]

As usually defined, the IC50 is the concentration at which inhibition is half-maximal.

T1 sequence (P30550 whole entry): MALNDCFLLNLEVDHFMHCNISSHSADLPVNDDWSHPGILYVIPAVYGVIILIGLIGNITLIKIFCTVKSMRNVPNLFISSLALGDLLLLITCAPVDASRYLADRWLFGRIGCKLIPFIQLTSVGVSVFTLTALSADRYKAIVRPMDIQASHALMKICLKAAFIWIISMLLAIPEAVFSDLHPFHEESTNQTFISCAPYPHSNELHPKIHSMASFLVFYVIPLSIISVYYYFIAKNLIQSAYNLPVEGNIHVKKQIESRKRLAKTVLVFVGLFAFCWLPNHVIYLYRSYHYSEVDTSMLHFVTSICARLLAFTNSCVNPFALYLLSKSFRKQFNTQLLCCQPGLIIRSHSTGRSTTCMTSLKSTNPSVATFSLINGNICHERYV

For `CC(C)CC(CC(C)C)NC(=O)[C@H](Cc1cnc[nH]1)NC(=O)CNC(=O)[C@@H](NC(=O)[C@H](C)NC(=O)[C@H](Cc1c[nH]c2ccccc12)NC(=O)[C@H](CCC(N)=O)NC(=O)[C@@H](Cc1ccccc1)NC(=O)COCC(=O)Nc1ccc(CNC(=O)CN2CCN(CC(=O)O)CCN(CC(=O)O)CCN(CC(=O)O)CC2)cc1)C(C)C` [NeoBOMB1, reference compound], the IC50 was 4.2 ± 0.1 nM at GRPR (setting [5]) and 4.22 ± 0.14 nM at GRPR (setting [6]). In the data set on PC-3 cells, the “Specific internalization (mean ± SD, n = 6)” value is 13.91 ± 0.64 % of the used activity. Besides, the pancreas retention entry in data set [1] (100 pmol, FIG. 11) was “high pancreas retention”. For the same molecule, in data set [1] (100 pmol, FIGS. 11, 18), the tumor retention entry is “high tumor retention”. Moreover, the “tumor-to-background ratios (tumor-to-blood, tumor-to-muscle)” value in data set [1] (FIG. 12) is “minor tumor-to-background ratios than the reference”. In addition, the “Amount of intact tracer after incubation in human plasma for 72 ± 2 h (n = 2)” value (from here on “Amount of intact tracer after incubation”) in data set [2] (Table 1C, 177Lu-labeled, 37° C., 72 ± 2 h, in % (unit assumed)) turned out to be 60.8 ± 1.2. In addition, in data set [2] (human plasma, 37° C., 72±2 h), the “amount of intact tracer (in vitro stability), mean ± SD” value was determined as 60.8±1.2%. Further, the “log D7.4 ± SD (n = 8)” value in data set [3] is listed as −0.57 ± 0.03.

On to `CC(C)C[C@H](NC(=O)C[C@H](O)[C@H](CC(C)C)NC(=O)[C@H](Cc1c[nH]cn1)NC(=O)CNC(=O)[C@@H](NC(=O)[C@H](C)NC(=O)[C@H](Cc1c[nH]c2ccccc12)NC(=O)[C@H](CCO)NC(=O)[C@@H](Cc1ccccc1)NC(=O)CN1CCC(NC(=O)CN2CCN(CC(=O)O)CCN(CC(=O)O)CCN(CC(=O)O)CC2)CC1)C(C)C)C(N)=O` [DOTA-[Hse^7]MJ9], for which the IC50 on GRPR (setting [5]) came to 19.7 ± 1.6 nM. The “Specific internalization (mean ± SD, n = 6)” value in the data set with PC-3 cells was 1.40 ± 0.16 % of the used activity. In data set [2], the “Amount of intact tracer after incubation” value is on record as 40.1 ± 1.4; the “metabolite, first-eluting peak in chromatogram” value (“metabolite, first-eluting peak” for short) stood at 30%; the “metabolite, second peak in chromatogram” value came out at 8%; the “remaining intact tracer in chromatogram” value amounted to 56%. Further, the “log D7.4 ± SD (n = 8)” value in data set [3] is reported as −2.25 ± 0.06.

As for `CC(C)C[C@H](NC(=O)C[C@H](O)[C@H](CC(C)C)NC(=O)[C@H](Cc1c[nH]cn1)NC(=O)CNC(=O)[C@@H](NC(=O)[C@H](C)NC(=O)[C@H](Cc1csc2ccccc12)NC(=O)[C@H](CCC(N)=O)NC(=O)[C@@H](Cc1ccccc1)NC(=O)CN1CCC(NC(=O)CN2CCN(CC(=O)O)CCN(CC(=O)O)CCN(CC(=O)O)CC2)CC1)C(C)C)C(N)=O` [DOTA-[Bta^8]MJ9] ({DOTA}-[X1][dF]Q[Bta]AVGH[Sta]L-NH2), on GRPR (setting [5]), the IC50 stood at 4.6 ± 0.2 nM. In addition, on GRPR (setting [6]), the IC50 worked out at 4.63 ± 0.23 nM. The “Specific internalization (mean ± SD, n = 6)” value with PC-3 cells is 2.26 ± 0.18 % of the used activity. Besides, in data set [2], the “Amount of intact tracer after incubation” value was found to be 18.3 ± 2.3; the “metabolite, first-eluting peak” value was 79%; the “metabolite, second peak in chromatogram” value turned out to be 8%; the “remaining intact tracer in chromatogram” value stood at 12%. In addition, the “log D7.4 ± SD (n = 8)” value in data set [3] is −1.81 ± 0.02.

`CC(C)C[C@H](NC(=O)C[C@H](O)[C@H](CC(C)C)NC(=O)[C@H](Cc1c[nH]cn1)NC(=O)CNC(=O)[C@@H](NC(=O)[C@H](C)NC(=O)[C@](C)(Cc1c[nH]c2ccccc12)NC(=O)[C@H](CCC(N)=O)NC(=O)[C@@H](Cc1ccccc1)NC(=O)CN1CCC(NC(=O)CN2CCN(CC(=O)O)CCN(CC(=O)O)CCN(CC(=O)O)CC2)CC1)C(C)C)C(N)=O` [AMTG]: in data set [4], the “clearance of background activity in imaging” value was “cleared less rapid”. Further, in data set [2], the “Amount of intact tracer after incubation” value stood at 77.6 ± 10.1; the “metabolite, first-eluting peak” value is reported as 2%; the “metabolite, second peak in chromatogram” value is on record as 5%; the “remaining intact tracer in chromatogram” value is on record as 92%. Moreover, the “log D7.4 ± SD (n = 8)” value in data set [3] is reported as −2.28 ± 0.06.
